Reference: patent publication US7736848B2, “Cellular targets for treatment of retroviral infection” (Fox Chase Cancer Center, priority 2002, dated 2010)

Assays:
[1] = target: mTOR (Homo sapiens, UniProt P42345); conditions: cited from earlier work
[2] = system: HIV-1-based vector; assay: HIV-1 vector transduction of terminally differentiated primary macrophages; type: cell-based; conditions: caffeine 24 hrs
Method: Human peripheral blood mononuclear cells (PBMC) were isolated by centrifugation in Ficoll-Hypaque (Sigma, St. Louis, Mo., USA) from buffy coats of HIV-1 seronegative individuals. Monocyte-derived macrophages (MDM) were obtained from PBMC by adherence to plastic for 12 hours in DMEM supplemented with 10% human serum (Cellgro, Herndon, Va., USA), washed, and cultured in the same medium in the presence of macrophage colony-stimulating factor (MCSF, 2 ng/ml; Sigma, St. Louis, Mo., USA) for another 7-10 days, allowing cells to differentiate before infection. The medium was replaced twice during the incubation period. The primary cells were kept at 37° C. in a humidified incubator with 5% CO2.

[3] = system: primary human macrophages; assay: Cytotoxicity in primary human macrophages; conditions: conditions of the transduction test
[4] = system: ASV vector; assay: Nuclear import: LTR-LTR circle junctions in ASV-infected HeLa cells; type: cell-based
[5] = system: HIV-1 strain NL4-3; assay: 2-LTR DNA junctions (nuclear import) in NL4-3-infected PBMCs; type: cell-based; conditions: 24 hours post-infection
Source text: To determine if methylxanthines altered the nuclear import of HIV-1 pre-integration complexes (PICs), we analyzed the level of 2-LTR DNA junctions in infected cells by a quantitative DNA-PCR technique. […] To normalize the cell number, the human beta-globin gene was used as a standard (Nunnari et al., 2002, supra; Otero et al., 2003, supra).

[6] = target: DNA-PK (Homo sapiens, UniProt P78527); conditions: cited from earlier work
[7] = system: PBMC; conditions: at the utilized concentration (4 mM)
[8] = system: neomycin phosphotransferase II; assay: Expression of neo reporter in stably transduced HeLa cells (Western blot); type: cell-based; conditions: 24 hr, up to 4 mM caffeine
Method: Western Blot Analyses. […] Cells were then harvested, lysed, and lysates were subjected to electrophoresis in a 10% SDS polyacrylamide gel. The separated proteins were then transferred to a PVDF membrane and the filter was treated with neomycin phosphotransferase II antibody (Upstate Biotech). Bands were detected using a chemi-luminiscence assay.

[9] = system: HIV-1-based vector; assay: HIV-1 vector transduction of dividing and nocodazole-arrested 293T cells; type: cell-based
Method: To arrest cells in M phase, cells were treated with nocodazole (1 μg/ml) for 24 hrs prior to addition of the virus. Nocodazole was maintained in the cell culture medium during and after infection. Cells were distributed in a 24-well plate at a density of 5×10^4 cells per well and nocodazole was added to a final concentration of 1 μg/ml. […] Two days post-infection, cells were stained using a β-galactosidase assay (Stratagene according to manufacturer's protocol) and blue cells counted.

[10] = system: ASV-based vector; assay: Stable transduction of HeLa cells by ASV neo vector; type: cell-based; conditions: 24 h, read-out: IC50, reduction in number of cells stably transduced by ASV vector
Method: (§1) Infection of HeLa Cells. […] The virus-containing medium was then replaced with fresh medium. Two to seven days after infection with the HIV-1 vector (as indicated) cells were stained using a β-galactosidase assay (Stratagene). Cells were selected for G418 resistance one day after infection with the ASV vector by addition of 1 mg/ml G418.
(§2) After infection with ASV, G418 was also added at this time.

[11] = system: ASV vector; assay: Viral DNA synthesis in ASV-infected HeLa cells (real time PCR); type: cell-based; conditions: up to 4 mM; 24 hr post-infection
Method: Real Time PCR. Extrachromosomal DNA from infected and uninfected cells was prepared by HIRT extraction. Real-Time PCR amplification, data-acquisition and analysis were preformed with the Cephid Smart Cycler. The Biochemistry and Biotechnology Facility at the Fox Chase Cancer Center prepared the primers using BHQ-1 non-fluorogenic quencher (Biosearch Technologies). Viral sequence primers directed against ASV pol were selected using Primer Express™ (Applied Biosystems) and had the following sequences: Forward primer, 5′-[…]-3′ (SEQ ID NO:1); Reverse primer, 5′-[…]-3′ (SEQ ID NO:2); Probe, 5′-(FAM) CC […] (BHQ)-3′ (SEQ ID NO:3). Results were normalized with those from primers against mitochondrial DNA (Asaad et al., Oncogene 19: 5788-5800, 2000). Each reaction contained 1× Reaction Buffer (20 mM Tris-HCl, pH 8.4), 50 mM KCl), 0.25 mM each dNTP, 2.5 mM MgCl2, 400 nM primers, 200 nM probe and 2.5 U Platinum Taq Polymerase (Invitrogen). Relative quantitation was calculated with the Comparative Cycle Threshold Method using the untreated samples as the reference (User, B. ABI Prism 7700 Sequence Detection System; the Perkin Elmer Corporation, P/N 4303859 Rev. A. Stock No. 77802-001, 1997). […] Relative quantitation was averaged and standard deviations were determined between independent experiments.
Synthesis of viral DNA was detected by quantitative PCR.

[12] = target: T1, HIV-1 integrase (Human immunodeficiency virus type 1 group M subtype B, UniProt P04585); assay: In vitro integrase activity, HIV-1 integrase; type: biochemical; conditions: up to 10 mM
T1 construct: For HIV-1 integrase, reactions contained 1.0 M HIV IN
Method: For HIV-1 integrase, reactions contained […] HIV IN, 1.0 μM U5 21/21 substrate (Katz & Skalka, Ann. Rev. Biochem. 63: 133-173, 1994; Coffin et al., Retroviruses, Cold Spring Harbor Laboratory, 1997) in 22 mM Hepes, pH 7.5, 5.1 mM DTT, 6% glycerol, 6.66% DMSO, 50 mM KCl and 10 mM MnCl2. Conditions were as described for ASV IN, except that the final incubation time was 60 min.

[13] = system: 293T cells; assay: Cytotoxicity in 293T cells; conditions: conditions of the transduction test
[14] = target: ATM kinase (Homo sapiens, UniProt Q13315); conditions: in vitro; read-out: IC50 for ATM kinase inhibition; cited from earlier work
[15] = system: ASV vector; assay: organism not typed; type: cell-based; conditions: HeLa, 24 h, read-out: inhibition of integration (host-viral junction DNA)
[16] = system: HIV-1-based vector; assay: Stable transduction of HeLa cells by HIV-1-lacZ vector; type: cell-based; conditions: Human immunodeficiency virus 1, HeLa, read-out: IC50, reduction in number of cells stably transduced by HIV-1 vector
Method: as §1, §2
Transduction was measured five to six days later by the presence of β-galactosidase positive colonies.

[17] = target: ATR kinase (Homo sapiens, UniProt Q13535); conditions: in vitro; read-out: IC50 for ATR kinase inhibition; cited from earlier work
[18] = system: HIV-1 NL4-3 (X4) strain; assay: HIV-1 NL4-3 replication in PBMCs (p24 antigen ELISA); type: cell-based; conditions: 4 mM; for drop in HIV-1 p24 antigen levels: 7 days post-infection; for p24 antigen levels vs control: 12 days post-infection; for decrease in HIV-1 p24 antigen vs NL4-3 infected control: day 3 post-infection; for inhibition of NL4-3 growth: p24 at 6 days post-infection
[19] = system: HIV-1-based vector; assay: Transduction of parental GM847 cells treated with doxycycline; type: cell-based
Source text: To examine the role of ATR more directly, the inventors examined the efficiency of retroviral DNA integration and transduction in cells defective in ATR function. […] Cells that synthesize the dominant-negative ATRkd protein (doxycycline-inducible expression) are viable, but show deficiencies in DNA repair that are distinct from those in cells deficient in ATM.
Because ATR was also implicated in the regulation of Vpr-induced G2/M arrest, transduction of ATRkd-expressing cells by the multiply attenuated HIV-1-based vector was also evaluated.

[20] = system: PCNA; assay: PCNA Western blot in nocodazole-treated 293T cells; type: cell-based; conditions: nocodazole 1 μg/ml, 24 hrs
Method: To determine the efficiency of the nocodazole arrest, cells were assayed for expression of the proliferating-cell nuclear antigen (PCNA) by Western blotting with an anti-PCNA antibody. PCNA accumulates in cells as they enter S phase, but is rapidly degraded in other phases of the cell cycle. (Takase, K et al. Reversible G1 arrest induced by dimethyl sulfoxide in human lymphoid cell lines: kinetics of the arrest and expression of the cell cycle marker proliferating cell nuclear antigen in Raji cells. Cell Growth Differ 1992, 3:515-521).

[21] = system: PCNA; assay: PCNA Western blot in nocodazole-treated GM847/ATRkd cells; type: cell-based, human; conditions: nocodazole 1 μg/ml
Method: GM847/ATRkd cells were plated at a density of 2×10^4 cells per well of 24-well plate, in the presence or absence of doxycycline (5 μg/ml) and nocodazole (1 μg/ml).
To examine the role of ATR in growth-arrested cells, the GM847/ATRkd cells were treated with nocodazole in addition to doxycycline.

[22] = system: retroviral transduction of HeLa cells; assay: Retroviral transduction of HeLa cells treated with mTOR inhibitor
Source text: To determine if mTOR is involved in retroviral transduction, the inventors infected HeLa cells and treated them with the mTOR-specific inhibitor, rapamycin.

[23] = system: macrophage-tropic (R5) HIV-1 strain, ADA; assay: HIV-1 ADA replication in PBMCs (p24 antigen); type: cell-based; conditions: Human immunodeficiency virus 1, PBMC, p24 at 6 days post-infection
[24] = system: p53 phosphorylated on serine 15; assay: p53 serine 15 phosphorylation in NL4-3-infected PBMCs (Western blot); type: cell-based, human; conditions: 24 hrs
Source text: (§3) To establish if HIV-1 infection triggers the DNA damage response that is controlled by these kinases, human PBMCs were infected with the HIV-1 NL4-3 strain and analyzed by Western blotting to determine the levels of phosphorylation by ATM and ATR in these cells. Western blotting was sequentially performed with an anti pBRCA1 (Bethyl Laboratories, Montgomery, Tex., cat # A300-008A) or an anti-Ku86 antibody (Santa Cruz, sc-9034, Santa Cruz, Calif.). For detection of the p53 phosphorylated on serine 15 residue, Western blotting was performed with a rabbit polyclonal antibody from Cell Signaling Technology, Beverly, Mass. (cat # 9284S).

[25] = cited from earlier work
[26] = system: BRCA1 phosphorylated on serine 1423; assay: BRCA1 serine 1423 phosphorylation in PBMCs (Western blot); type: cell-based, human
Source text: as §3

ATR kinase, sequence (Q13535 whole entry): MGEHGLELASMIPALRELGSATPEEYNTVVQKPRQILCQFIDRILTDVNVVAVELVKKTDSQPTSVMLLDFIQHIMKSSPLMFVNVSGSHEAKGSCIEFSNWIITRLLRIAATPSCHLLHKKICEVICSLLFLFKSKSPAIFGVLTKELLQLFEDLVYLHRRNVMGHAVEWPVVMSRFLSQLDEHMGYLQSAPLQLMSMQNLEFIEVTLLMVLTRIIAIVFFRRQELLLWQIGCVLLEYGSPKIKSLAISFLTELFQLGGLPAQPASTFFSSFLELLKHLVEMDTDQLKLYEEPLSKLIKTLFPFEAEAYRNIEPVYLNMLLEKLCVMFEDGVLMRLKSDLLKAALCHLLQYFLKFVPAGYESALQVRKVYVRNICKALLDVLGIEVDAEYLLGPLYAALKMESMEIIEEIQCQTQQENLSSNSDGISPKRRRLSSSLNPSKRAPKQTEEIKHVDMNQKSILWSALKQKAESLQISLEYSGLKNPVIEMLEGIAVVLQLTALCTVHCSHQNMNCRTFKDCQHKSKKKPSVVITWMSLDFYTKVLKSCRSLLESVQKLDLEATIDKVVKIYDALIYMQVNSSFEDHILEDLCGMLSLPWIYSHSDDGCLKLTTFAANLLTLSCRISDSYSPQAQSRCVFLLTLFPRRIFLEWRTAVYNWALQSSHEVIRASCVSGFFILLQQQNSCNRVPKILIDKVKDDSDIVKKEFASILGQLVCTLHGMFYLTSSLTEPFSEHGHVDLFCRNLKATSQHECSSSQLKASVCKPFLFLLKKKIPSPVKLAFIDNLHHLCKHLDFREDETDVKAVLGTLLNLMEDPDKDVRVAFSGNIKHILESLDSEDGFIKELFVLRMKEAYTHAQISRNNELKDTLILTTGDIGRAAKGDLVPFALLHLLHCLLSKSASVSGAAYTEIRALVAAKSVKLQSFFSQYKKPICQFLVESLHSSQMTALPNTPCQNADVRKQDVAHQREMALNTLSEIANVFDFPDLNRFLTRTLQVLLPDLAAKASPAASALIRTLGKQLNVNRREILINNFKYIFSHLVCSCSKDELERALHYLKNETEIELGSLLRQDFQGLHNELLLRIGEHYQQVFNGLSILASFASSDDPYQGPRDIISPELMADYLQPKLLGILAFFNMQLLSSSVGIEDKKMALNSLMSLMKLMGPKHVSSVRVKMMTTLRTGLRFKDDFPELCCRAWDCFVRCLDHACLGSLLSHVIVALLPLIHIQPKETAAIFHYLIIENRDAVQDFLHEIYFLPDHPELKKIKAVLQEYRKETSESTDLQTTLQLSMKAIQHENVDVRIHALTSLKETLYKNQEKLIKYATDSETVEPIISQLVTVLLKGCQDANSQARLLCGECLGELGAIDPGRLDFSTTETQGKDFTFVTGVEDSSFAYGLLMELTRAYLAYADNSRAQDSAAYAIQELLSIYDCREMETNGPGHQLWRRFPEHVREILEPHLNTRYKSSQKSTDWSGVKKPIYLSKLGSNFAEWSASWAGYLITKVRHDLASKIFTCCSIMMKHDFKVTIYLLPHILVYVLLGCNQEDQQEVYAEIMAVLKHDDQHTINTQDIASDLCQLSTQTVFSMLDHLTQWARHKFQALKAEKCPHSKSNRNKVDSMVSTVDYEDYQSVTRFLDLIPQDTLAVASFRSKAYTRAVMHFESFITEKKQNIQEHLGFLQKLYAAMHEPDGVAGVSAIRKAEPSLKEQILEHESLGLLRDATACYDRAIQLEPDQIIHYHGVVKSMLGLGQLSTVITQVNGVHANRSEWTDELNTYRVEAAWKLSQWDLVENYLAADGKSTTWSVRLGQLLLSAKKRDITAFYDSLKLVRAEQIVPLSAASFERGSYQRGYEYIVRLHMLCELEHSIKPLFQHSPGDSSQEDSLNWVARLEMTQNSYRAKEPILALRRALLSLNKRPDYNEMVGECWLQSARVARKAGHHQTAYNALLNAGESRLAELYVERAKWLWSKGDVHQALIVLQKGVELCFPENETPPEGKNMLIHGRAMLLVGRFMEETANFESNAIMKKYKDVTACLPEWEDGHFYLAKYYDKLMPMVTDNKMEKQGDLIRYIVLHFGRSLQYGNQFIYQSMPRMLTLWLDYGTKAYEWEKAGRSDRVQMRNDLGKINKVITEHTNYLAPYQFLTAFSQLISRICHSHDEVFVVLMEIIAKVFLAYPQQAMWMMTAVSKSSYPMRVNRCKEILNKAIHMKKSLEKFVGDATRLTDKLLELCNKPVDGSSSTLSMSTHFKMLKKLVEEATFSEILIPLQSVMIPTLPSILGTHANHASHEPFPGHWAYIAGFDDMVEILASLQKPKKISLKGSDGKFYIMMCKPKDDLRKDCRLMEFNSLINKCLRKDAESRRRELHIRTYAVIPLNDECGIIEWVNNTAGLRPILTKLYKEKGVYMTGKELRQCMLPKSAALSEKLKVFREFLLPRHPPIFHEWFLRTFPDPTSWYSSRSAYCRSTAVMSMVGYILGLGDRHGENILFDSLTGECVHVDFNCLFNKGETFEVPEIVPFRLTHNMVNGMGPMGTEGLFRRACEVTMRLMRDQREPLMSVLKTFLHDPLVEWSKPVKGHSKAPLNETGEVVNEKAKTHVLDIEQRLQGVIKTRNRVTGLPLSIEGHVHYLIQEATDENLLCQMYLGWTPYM
ATR kinase, sequence (Q8WXE1 whole entry partner): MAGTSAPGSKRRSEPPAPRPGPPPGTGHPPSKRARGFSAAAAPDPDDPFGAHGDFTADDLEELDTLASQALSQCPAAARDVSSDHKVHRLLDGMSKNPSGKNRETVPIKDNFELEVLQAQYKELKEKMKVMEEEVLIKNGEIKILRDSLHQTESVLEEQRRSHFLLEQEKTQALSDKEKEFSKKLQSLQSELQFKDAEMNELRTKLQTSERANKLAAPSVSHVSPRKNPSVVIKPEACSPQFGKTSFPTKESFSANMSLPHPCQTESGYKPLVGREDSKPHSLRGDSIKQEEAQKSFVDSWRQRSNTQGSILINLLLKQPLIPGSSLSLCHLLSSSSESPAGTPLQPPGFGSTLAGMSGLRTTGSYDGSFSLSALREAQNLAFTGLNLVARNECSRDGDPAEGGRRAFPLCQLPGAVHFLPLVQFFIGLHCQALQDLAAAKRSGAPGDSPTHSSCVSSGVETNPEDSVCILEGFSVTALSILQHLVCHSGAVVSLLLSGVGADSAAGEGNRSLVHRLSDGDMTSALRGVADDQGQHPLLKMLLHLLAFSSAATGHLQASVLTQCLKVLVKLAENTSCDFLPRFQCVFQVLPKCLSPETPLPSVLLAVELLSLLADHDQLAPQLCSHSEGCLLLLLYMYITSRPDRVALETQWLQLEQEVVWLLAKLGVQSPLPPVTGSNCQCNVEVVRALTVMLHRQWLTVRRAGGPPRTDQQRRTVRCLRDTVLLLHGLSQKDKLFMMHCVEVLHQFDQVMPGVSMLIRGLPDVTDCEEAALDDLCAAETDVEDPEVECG

**Q.** What does the source list for `Cn1c(=O)c2c(ncn2C)n(C)c1=O` [caffeine, 1,3,7-trimethylxanthine]?
**A.** inhibition of mTOR in vitro [1]: inhibits; transduction of terminally differentiated primary human macrophages [2]: inhibit; cytotoxicity [3]: no visible cytotoxicity; formation of circle junctions ([4]; 2 mM caffeine): not significantly affected; formation of circle junctions ([4]; 4 mM caffeine): only a modest decrease; level of 2-LTR junctions [5]: No significant inhibitory effect; sensitivity of DNA-PK to caffeine [6]: not sensitive; cellular cytotoxicity (XTT assay) [7]: did not show any significant cellular cytotoxicity; amount of reporter protein (neomycin phosphotransferase) [8]: no reduction; transduction by multiply attenuated HIV-1-based vector (lacking vpr, vif, vpu, nef) ([9]; 293T cells, dividing and nocodazole-arrested): inhibited; HIV-transduction of dividing cells ([9]; exponentially dividing 293T cells, caffeine 24 h, dose-dependent): inhibited; HIV-transduction of nocodazole-arrested cells ([9]; nocodazole-arrested 293T cells, caffeine 24 h, dose-dependent): inhibited; IC50 [10]: ~800 µM; effect on amount of viral DNA detected [11]: only a modest effect; processing activity of HIV-1 integrase [12]: unaffected; cytotoxicity [13]: No caffeine cytotoxicity; IC50 [14]: 1000 to 2000 µM; inhibition at 4000 µM [15]: 88%; IC50 [16]: ~1500 µM; IC50 [17]: 1000 to 2000 µM; drop in HIV-1 p24 antigen levels [18]: three; p24 antigen levels vs control [18]: reached the control level; decrease in HIV-1 p24 antigen vs NL4-3 infected control [18]: 9 fold; inhibition of NL4-3 growth [18]: approximately 9 fold

**Q.** For `C[C@H]1c2cccc(O)c2C(=O)C2=C(O)[C@]3(O)C(=O)C(C(N)=O)=C(O)[C@@H](N(C)C)[C@@H]3[C@@H](O)[C@@H]21` [doxycycline], which “effect on transduction of parental cells” value [19] is on record?
**A.** no effect

**Q.** With `COC(=O)Nc1nc2ccc(C(=O)c3cccs3)cc2[nH]1` [nocodazole] as the compound, how does the “amount of PCNA relative to exponentially dividing cells” value [20] read?
**A.** ≤ 5%

**Q.** And the “amount of PCNA relative to exponentially dividing cells” value [21]?
**A.** 10-20%

**Q.** Which “effect on retroviral transduction” value [22] does the source give for `CO[C@H]1C[C@@H]2CC[C@@H](C)[C@@](O)(O2)C(=O)C(=O)N2CCCC[C@H]2C(=O)O[C@H]([C@H](C)C[C@@H]2CC[C@@H](O)[C@H](OC)C2)CC(=O)[C@H](C)/C=C(\C)[C@@H](O)[C@@H](OC)C(=O)[C@H](C)C[C@H](C)/C=C/C=C/C=C/1C` [rapamycin] here?
**A.** no effect

**Q.** With `Cn1cnc2c1c(=O)[nH]c(=O)n2C` [theobromine, 3,7-dimethylxanthine] as the compound, how does the IC50 [23] read?
**A.** ~100 µM

**Q.** What about the “inhibition of NL4-3 growth” value [18] of the same compound?
**A.** ~2 fold

**Q.** Which “p53 phosphorylation (serine 15)” value [24] does the source give for `Cn1c(=O)c2[nH]cnc2n(C)c1=O` [theophylline, 1,3-dimethylxanthine] here?
**A.** suppressed

**Q.** What about the “cellular cytotoxicity (XTT assay)” value [7] of the same compound?
**A.** did not show any significant cellular cytotoxicity

**Q.** What about the “concentration reached in plasma of theophylline-treated patients” value [25] of the same compound?
**A.** 28 to 110 µM

**Q.** And the “BRCA1 phosphorylation (serine 1423)” value ([26]; NL4-3-infected PBMCs, 24 hrs)?
**A.** suppressed

**Q.** And the “basal phosphorylation of BRCA1 on serine 1423” value ([26]; PBMCs, basal)?
**A.** failed to suppress

**Q.** What about the IC50 [23] of the same compound?
**A.** ~60 µM

**Q.** And the “drop in HIV-1 p24 antigen levels” value [18]?
**A.** four-fold

**Q.** And the “p24 antigen levels vs control” value [18]?
**A.** reached the control level

**Q.** What about the “decrease in HIV-1 p24 antigen vs NL4-3 infected control” value [18] of the same compound?
**A.** 9 fold

**Q.** And the “inhibition of NL4-3 growth” value [18]?
**A.** ~5 fold
